Assay results from publication PMC8068801, “Novel Benzenesulfonate Scaffolds with a High Anticancer Activity and G2/M Cell Cycle Arrest” (Cancers, 2021).

Key:
purified bovine tubulin = assay: In vitro tubulin polymerization assay; assay type: biochemical; settings: 10 µM; turbidity at 350 nm, maximum absorbance
Experimental: The effect of small-molecule compounds on tubulin polymerization was monitored using an In Vitro Tubulin Polymerization Kit (≥99% Pure Bovine Tubulin) (Millipore) following the manufacturer’s protocol. Briefly, the tested compounds, BS1 and BS4, as well as reference drugs, paclitaxel (enhancer of polymerization) and nocodazole (inhibitor of polymerization) at a concentration of 10 µM were mixed with purified bovine tubulin (60 μM) and polymerization buffer with GTP (1 mM) on 96-well plate on ice. Then, the plate was transferred into the multi-plate reader (Synergy 4) chamber (heated to 37 °C) and measured the turbidity variation every 30 s at 350 nm during 90 min. The experiments were performed three times.

K562 cells [1] = assay: Cell cycle assay (Muse Cell-Cycle Kit), K562; assay type: cell-based, human; settings: 24 h
Experimental: The K562, U-251 and NHDF cells were seeded in 3 cm Petri dishes (Nunc) at a density of 250,000 cells per well and incubated under standard conditions at 37 °C for 24 h. […] After a 24 h treatment, the assays were performed using a Muse Cell-Cycle Kit (Millipore, Burlington, MA, USA) according to the supplier’s instructions. Briefly, the cells were collected, washed with cold PBS and centrifuged at 300 g for 5 min. Afterwards, the cells were fixed in ice cold 70% ethanol and stored at −20 °C overnight. The next day, the cells were washed with cold PBS, centrifuged and resuspended in 200 μL of the Muse™ Cell Cycle Reagent. The samples were incubated for 30 min at room temperature in the dark. After staining, the cellular subpopulation values in the individual cell cycle phases were estimated using a cell cycle analysis using a Muse Cell Analyzer (Millipore). The experiments were performed at least four times.

K562 cells [2] = assay: Autophagy assay (Muse LC3-antibody kit), K562; assay type: cell-based, human; settings: K562, 0.5 μM, vs control
Experimental: (§1) The K562 and U-251 cells were seeded in 96-well plates (Nunc) and incubated at 37 °C for 24 h. The density of the cells was 20,000 cells per well (for the 24 h assay) and 10,000 per well (for the 48 h assay). […] After treatment, the assays were performed using a Muse™ Autophagy LC3-antibody based kit (Millipore) according to the manufacturer’s instructions. Briefly, the cells were collected, washed with cold HPBS and centrifuged at 300 g for 5 min. […] The samples were incubated on ice for 30 min in the dark. After incubation, the cells were centrifuged and resuspended in 200 μL of a 1X Assay Buffer. Then, the samples were directly processed to analyze the autophagy induction using a Muse Cell Analyzer. The autophagy induction ratio was calculated on the basis of the ratio between the target sample fluorescence versus the control sample. The experiments were performed at least three times.

K562 cells [3] = assay: Immunoblotting with densitometry, K562; assay type: cell-based, human; settings: 24 h; for PARP/Reference 89 kDa, densitometric intensity ratio / caspase-9/Reference 37-35 kDa, densitometric intensity ratio: control 0.167; for AIF/Reference 67 kDa, densitometric intensity ratio / BID/Reference 22 kDa, densitometric intensity ratio / PARP/Reference 116 kDa, densitometric intensity ratio / caspase-9/Reference 47 kDa, densitometric intensity ratio / cdc2/Reference 34 kDa, densitometric intensity ratio / cyclin E1/Reference 48 kDa, densitometric intensity ratio: control 1.000
Experimental: The K562 and U-251 cells were seeded in 3 cm Petri dishes (Nunc) at a density of 500,000 cells per well and incubated overnight. […] Next, the cell pellets were resuspended in an RIPA buffer containing a Halt Protease Inhibitor Cocktail and a Halt Phosphatase Inhibitor Cocktail along with 0.5 M EDTA (all from Thermo Scientific, Waltham, MA, USA) and lysed on ice for 20 min. Then, the obtained lysates were sonicated and centrifuged at 10,000 rpm for 10 min at 4 °C. The supernatants were collected for further analysis. The protein concentration was measured using a Micro BCA™ Protein Assay Kit (Thermo Scientific) according to the manufacturer’s instructions. Equal amounts of the proteins (16 μg) were electrophoresed on SDS-Page gels and transferred onto nitrocellulose membranes. The membranes were blocked in 5% non-fat milk prepared in TPBS (PBS containing 0.1% Tween-20) for 1 h. After blocking, the membranes were incubated with the specific primary antibodies (all from Cell Signaling) at a 1:1000 dilution—cyclin E, cdc2, PARP, AIF, BID, p53, p21^Waf1/Cip1, HIF-1α, cathepsin B and caspase-9—and at a 1:2000 dilution for the reference proteins—vinculin, β-actin and GAPDH—overnight at 4 °C. The next day, the membranes were washed in TPBS and incubated with horseradish peroxidase (HRP)-conjugated secondary antibodies for 1 h at room temperature. Lastly, the membranes were washed in TPBS and incubated with a SuperSignal™ West Pico Chemiluminescent Substrate (Thermo Scientific). The chemiluminescence signals were captured using a ChemiDoc™ XRS + System (Biorad). The experiments were performed at least four to five times. The densitometric analysis was conducted using ImageJ software (Wayne Rasband, National Institutes of Health, Bethesda, MD, USA).
The band intensity of tested proteins (p53, cyclin E1, cdc2, p21, HIF-1α, cathepsin b, PARP, caspase-9, BID, AIF) were analyzed by densitometry readings/intensity ratio, using ImageJ software (NIH) and were normalized to the corresponding reference proteins (GAPDH, vinculin or β-actin) value.
The densitometric readings/intensity ratio data from four/five independent experiments (compared to control): […]
p53/ Refer- p21/ Refer- cdc2/ Refer- Cyclin E1/ HIF-1α/ Cathepsin b/Reference ence ence ence Reference Reference
PARP/Reference BID/ Reference Caspase-9/Reference […]
cdc2/ Reference cyclin E1/ Reference AIF/ Reference BID/ Reference

U-251 cells [4] = assay: Annexin V binding (apoptosis) assay, U-251; assay type: cell-based, human; settings: U-251, 6 μM, 48 h
Experimental: The K562, U-251 and NHDF cells were seeded in 3 cm Petri dishes (Nunc) at a density of 250,000 cells per well and incubated at 37 °C for 24 h. Then, the medium was removed, and freshly prepared solutions of the tested compounds, BS1 and BS4 (two to three times the IC50 value), were added. After a 48 h incubation, the assays were performed using a FITC Annexin V Apoptosis Detection KIT with 7-AAD (Bio-Legend) according to the manufacturer’s instructions. Briefly, the cells were collected, washed twice with cold PBS and centrifuged at 300 g for 5 min. Next, the cells were resuspended in a 100 µL Annexin V Binding Buffer and incubated for 15 min at room temperature in the dark with 5 µL of FITC Annexin V and 5 µL 7-AAD Viability Staining Solution. After immunostaining, the number of events for live, early and late apoptotic cells were determined using a Muse Cell Analyzer. The experiments were performed at least four times.

U-251 cells [5] = assay: Autophagy assay (Muse LC3-antibody kit), U-251; assay type: cell-based, human; settings: U-251, 4 μM, 24 h; vs control
Experimental: as §1

COc1ccccc1/C=C/c1nc(OS(=O)(=O)c2ccc3c(c2)OCO3)c2ccccc2n1 [BS1, 2-((E)-2-(2-methoxyphenyl)ethenyl)quinazolin-4-yl 1,3-benzodioxole-5-sulfonate]
Enhancement of tubulin polymerization, increase compared to control (purified bovine tubulin): about 47%
Cells in G2/M phase, mean ± SD (K562 cells [1]; K562, 0.35 µM): 43.46%
Cells in G2/M phase, mean ± SD (K562 cells [1]; K562, 0.5 μM): 37.20%
Autophagy induction ratio (K562 cells [2]; 24 h): 2.26
Autophagy induction ratio (K562 cells [2]; 48 h): 1.96
Cleavage caspase-9 proteins (Western blot) (K562 cells [3]; K562, 0.35 µM): more than six-fold increase
PARP/Reference 89 kDa, densitometric intensity ratio (K562 cells [3]; K562, 0.35µM): 2.111
caspase-9/Reference 37-35 kDa, densitometric intensity ratio (K562 cells [3]; K562, 0.35µM): 1.287
AIF/Reference 67 kDa, densitometric intensity ratio (K562 cells [3]; K562, 0.35µM): 3.809
BID/Reference 22 kDa, densitometric intensity ratio (K562 cells [3]; K562, 0.35µM): 1.049
PARP/Reference 116 kDa, densitometric intensity ratio (K562 cells [3]; K562, 0.35µM): 1.793
caspase-9/Reference 47 kDa, densitometric intensity ratio (K562 cells [3]; K562, 0.35µM): 1.109
cdc2/Reference 34 kDa, densitometric intensity ratio (K562 cells [3]; K562, 0.35µM): 1.234
cyclin E1/Reference 48 kDa, densitometric intensity ratio (K562 cells [3]; K562, 0.35µM): 1.273
PARP/Reference 89 kDa, densitometric intensity ratio (K562 cells [3]; K562, 0.5µM): 2.156
caspase-9/Reference 37-35 kDa, densitometric intensity ratio (K562 cells [3]; K562, 0.5µM): 1.368
AIF/Reference 67 kDa, densitometric intensity ratio (K562 cells [3]; K562, 0.5µM): 2.737
BID/Reference 22 kDa, densitometric intensity ratio (K562 cells [3]; K562, 0.5µM): 0.695
PARP/Reference 116 kDa, densitometric intensity ratio (K562 cells [3]; K562, 0.5µM): 1.646
caspase-9/Reference 47 kDa, densitometric intensity ratio (K562 cells [3]; K562, 0.5µM): 1.627
cdc2/Reference 34 kDa, densitometric intensity ratio (K562 cells [3]; K562, 0.5µM): 1.122
cyclin E1/Reference 48 kDa, densitometric intensity ratio (K562 cells [3]; K562, 0.5µM): 1.110
Early apoptotic cells, mean ± SD (U-251 cells [4]): 39.80%
Late apoptotic cells, mean ± SD (U-251 cells [4]): 11.40%

COc1ccccc1/C=C/c1nc(OS(=O)(=O)c2ccc(C)cc2)c2ccccc2n1 [BS4, 2-((E)-2-(2-methoxyphenyl)ethenyl)quinazolin-4-yl 4-methylbenzenesulfonate]
Cells in G0/G1 phase, mean ± SD (K562 cells [1]; K562, 0.5 μM): 21.80%
Cells in G2/M phase, mean ± SD (K562 cells [1]; K562, 0.5 μM): 58.73%
Cells in S phase, mean ± SD (K562 cells [1]; K562, 0.5 μM): 18.32%
Autophagy induction ratio (U-251 cells [5]): 5.03

COc1ccccc1/C=C/c1nc(OS(=O)(=O)c2cc3c(cc2Br)OCO3)c2ccccc2n1 [BS2, 2-((E)-2-(2-methoxyphenyl)ethenyl)quinazolin-4-yl 6-bromo-1,3-benzodioxole-5-sulfonate]
PARP/Reference 89 kDa, densitometric intensity ratio (K562 cells [3]; K562, 0.35µM): 0.494
caspase-9/Reference 37-35 kDa, densitometric intensity ratio (K562 cells [3]; K562, 0.35µM): 1.268
AIF/Reference 67 kDa, densitometric intensity ratio (K562 cells [3]; K562, 0.35µM): 4.141
BID/Reference 22 kDa, densitometric intensity ratio (K562 cells [3]; K562, 0.35µM): 0.965
PARP/Reference 116 kDa, densitometric intensity ratio (K562 cells [3]; K562, 0.35µM): 1.556
caspase-9/Reference 47 kDa, densitometric intensity ratio (K562 cells [3]; K562, 0.35µM): 1.108
cdc2/Reference 34 kDa, densitometric intensity ratio (K562 cells [3]; K562, 0.35µM): 1.338
cyclin E1/Reference 48 kDa, densitometric intensity ratio (K562 cells [3]; K562, 0.35µM): 1.640
PARP/Reference 89 kDa, densitometric intensity ratio (K562 cells [3]; K562, 0.5µM): 0.811
caspase-9/Reference 37-35 kDa, densitometric intensity ratio (K562 cells [3]; K562, 0.5µM): 1.113
AIF/Reference 67 kDa, densitometric intensity ratio (K562 cells [3]; K562, 0.5µM): 4.160
BID/Reference 22 kDa, densitometric intensity ratio (K562 cells [3]; K562, 0.5µM): 0.762
PARP/Reference 116 kDa, densitometric intensity ratio (K562 cells [3]; K562, 0.5µM): 1.665
caspase-9/Reference 47 kDa, densitometric intensity ratio (K562 cells [3]; K562, 0.5µM): 1.104
cdc2/Reference 34 kDa, densitometric intensity ratio (K562 cells [3]; K562, 0.5µM): 1.206
cyclin E1/Reference 48 kDa, densitometric intensity ratio (K562 cells [3]; K562, 0.5µM): 1.270
